Measurements taken from ChEMBL document CHEMBL1155192, “The identification of beta-hydroxy carboxylic acids as selective MMP-12 inhibitors” (Bioorg Med Chem Lett, 2009).
Values after ≈ are worked out from the molar mass of the structure shown.

Legend:
[1] = target: T1, Interstitial collagenase (Homo sapiens, UniProt P03956); experiment: Inhibition of human recombinant MMP1
T1 sequence (P03956 whole entry): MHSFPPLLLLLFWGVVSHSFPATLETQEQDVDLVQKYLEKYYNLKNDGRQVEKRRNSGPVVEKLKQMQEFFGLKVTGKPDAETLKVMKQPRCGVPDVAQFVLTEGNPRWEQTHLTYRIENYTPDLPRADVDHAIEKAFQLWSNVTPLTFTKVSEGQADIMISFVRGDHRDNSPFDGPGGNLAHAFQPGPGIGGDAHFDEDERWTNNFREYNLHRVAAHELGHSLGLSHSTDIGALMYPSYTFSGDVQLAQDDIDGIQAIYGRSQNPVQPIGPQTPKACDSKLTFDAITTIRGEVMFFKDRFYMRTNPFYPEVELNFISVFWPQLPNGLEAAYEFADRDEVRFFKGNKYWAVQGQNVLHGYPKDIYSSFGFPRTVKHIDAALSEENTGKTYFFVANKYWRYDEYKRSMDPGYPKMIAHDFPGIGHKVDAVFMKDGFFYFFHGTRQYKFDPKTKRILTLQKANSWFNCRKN

[2] = target: Macrophage metalloelastase (Homo sapiens, UniProt P39900); experiment: Inhibition of human recombinant MMP12
[3] = target: Collagenase 3 (Homo sapiens, UniProt P45452); experiment: Inhibition of human recombinant MMP13
[4] = target: T2, Matrilysin (Homo sapiens, UniProt P09237); experiment: Inhibition of human recombinant MMP7
T2 sequence (P09237 whole entry): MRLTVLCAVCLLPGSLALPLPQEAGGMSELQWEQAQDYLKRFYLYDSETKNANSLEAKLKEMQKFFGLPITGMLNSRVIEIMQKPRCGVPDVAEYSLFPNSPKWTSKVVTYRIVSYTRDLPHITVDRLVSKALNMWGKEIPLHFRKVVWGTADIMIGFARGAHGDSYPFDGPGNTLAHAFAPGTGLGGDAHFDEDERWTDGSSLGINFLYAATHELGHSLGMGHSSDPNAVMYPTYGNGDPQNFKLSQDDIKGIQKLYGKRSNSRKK

[5] = target: Stromelysin-1 (Homo sapiens, UniProt P08254); experiment: Inhibition of human recombinant MMP3
[6] = target: Matrix metalloproteinase-9 (Homo sapiens, UniProt P14780); experiment: Inhibition of human recombinant MMP9
[7] = Inhibition of guinea pig recombinant MMP12; set-up: species or system Cavia porcellus
[8] = target: Matrix metalloproteinase-14 (Homo sapiens, UniProt P50281); experiment: Inhibition of human recombinant MMP14
[9] = target: Disintegrin and metalloproteinase domain-containing protein 17 (Homo sapiens, UniProt P78536); experiment: Inhibition of human recombinant TACE
[10] = target: Angiotensin-converting enzyme (Homo sapiens, UniProt P12821); experiment: Inhibition of human recombinant ACE
[11] = target: 72 kDa type IV collagenase (Homo sapiens, UniProt P08253); experiment: Inhibition of human recombinant MMP2
[12] = Lipophilicity, log D at pH 7.4; assay type: physicochemical; details: buffer
[13] = Lipophilicity, log D at pH 6.2; assay type: physicochemical; details: buffer
[14] = Solubility at pH 7.4; assay type: physicochemical; details: buffer
[15] = Solubility at pH 6.2; assay type: physicochemical; details: buffer

Chain of Matrix metalloproteinase-9 (P14780 whole entry): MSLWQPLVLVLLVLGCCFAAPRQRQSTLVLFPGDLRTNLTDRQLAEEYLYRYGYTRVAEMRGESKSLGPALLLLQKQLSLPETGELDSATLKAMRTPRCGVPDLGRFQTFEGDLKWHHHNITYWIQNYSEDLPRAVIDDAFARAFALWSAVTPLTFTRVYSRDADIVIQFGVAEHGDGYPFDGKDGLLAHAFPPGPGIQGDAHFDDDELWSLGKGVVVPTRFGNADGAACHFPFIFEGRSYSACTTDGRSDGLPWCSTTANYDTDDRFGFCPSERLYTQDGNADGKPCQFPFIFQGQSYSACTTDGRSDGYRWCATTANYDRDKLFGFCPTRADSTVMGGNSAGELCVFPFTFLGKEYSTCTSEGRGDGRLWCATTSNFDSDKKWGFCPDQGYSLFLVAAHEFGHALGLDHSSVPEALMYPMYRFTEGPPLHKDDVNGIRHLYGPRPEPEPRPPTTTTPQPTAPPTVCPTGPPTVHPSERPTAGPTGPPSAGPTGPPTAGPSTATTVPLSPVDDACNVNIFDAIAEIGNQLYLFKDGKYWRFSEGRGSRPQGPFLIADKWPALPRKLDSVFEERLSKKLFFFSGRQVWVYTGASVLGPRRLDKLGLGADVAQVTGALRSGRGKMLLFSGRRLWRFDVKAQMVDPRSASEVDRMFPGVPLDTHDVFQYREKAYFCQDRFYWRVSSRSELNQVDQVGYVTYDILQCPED
Chain of Disintegrin and metalloproteinase domain-containing protein 17 (P78536 whole entry, the tested form may be a part): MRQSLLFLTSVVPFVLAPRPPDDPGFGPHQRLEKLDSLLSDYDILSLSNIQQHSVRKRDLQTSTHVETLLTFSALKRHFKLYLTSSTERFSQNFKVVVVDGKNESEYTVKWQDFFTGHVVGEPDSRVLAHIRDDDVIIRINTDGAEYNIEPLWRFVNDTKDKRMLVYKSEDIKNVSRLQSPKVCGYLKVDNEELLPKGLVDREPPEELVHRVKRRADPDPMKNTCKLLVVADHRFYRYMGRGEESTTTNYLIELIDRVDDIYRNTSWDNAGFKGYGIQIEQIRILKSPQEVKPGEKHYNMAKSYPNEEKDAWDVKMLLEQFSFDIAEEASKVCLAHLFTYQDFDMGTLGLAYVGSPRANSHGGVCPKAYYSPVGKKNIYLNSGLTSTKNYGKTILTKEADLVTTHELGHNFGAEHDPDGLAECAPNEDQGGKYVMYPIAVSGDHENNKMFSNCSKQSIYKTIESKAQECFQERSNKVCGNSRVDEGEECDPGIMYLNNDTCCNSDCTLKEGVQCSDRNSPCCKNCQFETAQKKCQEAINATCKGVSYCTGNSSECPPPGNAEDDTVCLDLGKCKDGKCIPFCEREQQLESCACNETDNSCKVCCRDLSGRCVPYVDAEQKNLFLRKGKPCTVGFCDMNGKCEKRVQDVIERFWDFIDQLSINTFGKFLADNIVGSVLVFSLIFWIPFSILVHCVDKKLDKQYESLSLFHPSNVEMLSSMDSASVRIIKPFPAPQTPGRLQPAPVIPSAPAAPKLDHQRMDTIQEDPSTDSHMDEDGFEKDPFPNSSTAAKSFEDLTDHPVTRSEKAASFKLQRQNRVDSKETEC
Chain of Angiotensin-converting enzyme (P12821 whole entry): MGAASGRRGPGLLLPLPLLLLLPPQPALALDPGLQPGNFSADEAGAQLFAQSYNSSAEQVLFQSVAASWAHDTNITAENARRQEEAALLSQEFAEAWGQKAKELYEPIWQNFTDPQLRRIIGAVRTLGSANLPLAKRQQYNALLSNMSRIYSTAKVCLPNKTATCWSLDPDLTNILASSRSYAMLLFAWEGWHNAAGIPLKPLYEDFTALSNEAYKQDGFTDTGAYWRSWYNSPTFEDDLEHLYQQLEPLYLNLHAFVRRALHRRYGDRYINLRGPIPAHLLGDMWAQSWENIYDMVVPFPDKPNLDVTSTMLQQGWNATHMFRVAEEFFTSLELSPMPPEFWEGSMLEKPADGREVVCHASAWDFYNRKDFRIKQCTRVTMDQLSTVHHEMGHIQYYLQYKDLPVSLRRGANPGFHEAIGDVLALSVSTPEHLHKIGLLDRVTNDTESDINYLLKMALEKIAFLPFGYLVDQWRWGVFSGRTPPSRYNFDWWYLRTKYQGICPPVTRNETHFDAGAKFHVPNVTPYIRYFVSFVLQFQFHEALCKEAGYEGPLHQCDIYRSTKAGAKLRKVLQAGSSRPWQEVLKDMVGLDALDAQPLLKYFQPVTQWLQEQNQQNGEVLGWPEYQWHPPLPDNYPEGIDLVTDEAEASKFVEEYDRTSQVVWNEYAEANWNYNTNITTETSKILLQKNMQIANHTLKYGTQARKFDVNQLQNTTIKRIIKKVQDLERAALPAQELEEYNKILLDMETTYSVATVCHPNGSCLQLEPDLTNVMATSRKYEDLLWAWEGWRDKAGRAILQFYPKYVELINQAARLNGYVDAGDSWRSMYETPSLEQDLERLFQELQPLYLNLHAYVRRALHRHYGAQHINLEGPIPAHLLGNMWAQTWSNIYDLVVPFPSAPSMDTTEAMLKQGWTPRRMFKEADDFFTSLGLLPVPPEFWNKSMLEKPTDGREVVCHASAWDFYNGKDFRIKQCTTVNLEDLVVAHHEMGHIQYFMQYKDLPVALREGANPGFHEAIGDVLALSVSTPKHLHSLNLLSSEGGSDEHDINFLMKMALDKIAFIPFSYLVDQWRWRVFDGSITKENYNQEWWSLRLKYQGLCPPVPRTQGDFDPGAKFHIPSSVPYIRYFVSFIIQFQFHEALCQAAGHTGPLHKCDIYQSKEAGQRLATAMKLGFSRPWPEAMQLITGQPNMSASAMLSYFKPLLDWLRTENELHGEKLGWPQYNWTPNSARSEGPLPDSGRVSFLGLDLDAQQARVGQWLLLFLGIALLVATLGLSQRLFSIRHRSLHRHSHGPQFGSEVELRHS
Chain of Macrophage metalloelastase (P39900 whole entry): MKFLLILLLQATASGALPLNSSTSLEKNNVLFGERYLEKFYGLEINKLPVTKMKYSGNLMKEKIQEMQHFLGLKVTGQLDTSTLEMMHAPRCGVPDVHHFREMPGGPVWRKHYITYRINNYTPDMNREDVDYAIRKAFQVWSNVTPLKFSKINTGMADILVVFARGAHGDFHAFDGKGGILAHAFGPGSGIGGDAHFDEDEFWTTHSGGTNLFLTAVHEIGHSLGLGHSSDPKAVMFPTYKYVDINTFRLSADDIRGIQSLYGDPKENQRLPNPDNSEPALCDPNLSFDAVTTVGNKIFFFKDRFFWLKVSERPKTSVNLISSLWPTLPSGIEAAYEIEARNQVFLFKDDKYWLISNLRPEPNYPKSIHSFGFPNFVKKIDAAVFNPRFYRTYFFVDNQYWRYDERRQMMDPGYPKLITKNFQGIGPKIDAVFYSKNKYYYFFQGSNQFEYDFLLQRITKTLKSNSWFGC
Chain of Stromelysin-1 (P08254 whole entry): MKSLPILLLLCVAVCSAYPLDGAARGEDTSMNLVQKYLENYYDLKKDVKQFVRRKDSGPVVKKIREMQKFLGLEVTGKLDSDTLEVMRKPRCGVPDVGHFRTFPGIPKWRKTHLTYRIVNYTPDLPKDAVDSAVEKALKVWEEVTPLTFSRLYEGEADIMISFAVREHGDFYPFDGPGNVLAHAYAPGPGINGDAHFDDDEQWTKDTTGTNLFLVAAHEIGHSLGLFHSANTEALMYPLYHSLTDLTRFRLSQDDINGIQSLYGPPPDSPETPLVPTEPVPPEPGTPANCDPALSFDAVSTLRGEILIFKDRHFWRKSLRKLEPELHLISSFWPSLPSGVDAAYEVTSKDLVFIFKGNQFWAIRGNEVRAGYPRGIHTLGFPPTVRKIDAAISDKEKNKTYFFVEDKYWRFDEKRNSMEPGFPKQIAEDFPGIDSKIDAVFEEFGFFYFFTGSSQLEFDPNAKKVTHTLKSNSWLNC
Chain of 72 kDa type IV collagenase (P08253 whole entry): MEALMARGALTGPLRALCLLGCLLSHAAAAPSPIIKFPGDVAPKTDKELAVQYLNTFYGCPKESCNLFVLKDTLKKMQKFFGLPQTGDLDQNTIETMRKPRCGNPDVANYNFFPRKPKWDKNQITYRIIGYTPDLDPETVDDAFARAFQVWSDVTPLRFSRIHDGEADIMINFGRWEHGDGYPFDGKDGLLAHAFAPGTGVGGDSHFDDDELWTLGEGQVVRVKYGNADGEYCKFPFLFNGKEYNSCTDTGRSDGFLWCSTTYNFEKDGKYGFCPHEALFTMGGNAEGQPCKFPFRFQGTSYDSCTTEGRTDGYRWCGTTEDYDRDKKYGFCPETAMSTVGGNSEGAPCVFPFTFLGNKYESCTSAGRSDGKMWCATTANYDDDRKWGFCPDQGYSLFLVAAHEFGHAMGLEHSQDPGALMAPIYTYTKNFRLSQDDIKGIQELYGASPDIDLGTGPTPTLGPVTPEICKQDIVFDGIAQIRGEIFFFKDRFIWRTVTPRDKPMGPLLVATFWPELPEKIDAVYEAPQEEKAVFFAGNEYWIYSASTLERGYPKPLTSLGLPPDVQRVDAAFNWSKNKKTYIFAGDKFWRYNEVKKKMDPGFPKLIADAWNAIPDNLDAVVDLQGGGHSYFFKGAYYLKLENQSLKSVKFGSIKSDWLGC

Structure (SMILES)	IC50 [1] [µM]	IC50 [2] [µM]	IC50 [3] [µM]	further results
CC(=O)OC(CCc1ccc(-c2ccccc2)cc1)CC(=O)O (stereo unspecified)	> 98	54.4	> 98	–
O=C(O)CSCCc1ccc(-c2ccccc2)cc1	> 98	11.8	95.2	–
O=C(O)CC(O)CCc1ccc(-c2ccc(OCc3ccccc3)cc2)cc1 (stereo unspecified)	> 98	3.75	> 98	–
N#Cc1cccc(-c2ccc(CCC(O)CC(=O)O)cc2)c1 (stereo unspecified)	> 98	3.39	52	–
O=C(O)CC(=O)CCc1ccc(-c2ccccc2)cc1	> 98	7.84	> 98	–
O=C(O)C[S+]([O-])CCc1ccc(-c2ccccc2)cc1 (stereo unspecified)	> 98	4.5	95.9	–
COC(CCc1ccc(-c2ccccc2)cc1)CC(=O)O (stereo unspecified)	> 98	3.53	> 98	–
O=C(O)CC(O)CCc1ccc(-c2cc3ccccc3o2)cc1 (stereo unspecified)	–	0.181	50.2	–

These reach a lower IC50 [3]. Values come first.

IC50 [1] [µM]	IC50 [2] [µM]	IC50 [3] [µM]	Structure (SMILES)	further results
> 98	19.9	41.9	O=C(O)CC(O)CCc1ccc(-c2ccc(Oc3ccccc3)cc2)cc1 (stereo unspecified)	–
> 98	0.79	36.8	O=C(O)CC(O)CCc1ccc(-c2ccccc2)cc1 (stereo in doubt)	IC50 [4]: > 98 µM; IC50 [5]: > 98 µM; IC50 [6]: 19.1 µM; IC50 [7]: 4.67 µM; IC50 [8]: > 9 µM; IC50 [9]: > 98 µM; IC50 [10]: > 250 µM
> 98	20.1	33.5	O=C(O)CC(O)CCc1ccc(-c2ccc3c(c2)oc2ccccc23)cc1 (stereo unspecified)	–
> 98	–	12	O=C(O)CC(O)CCc1ccc(-c2ccccc2)cc1 (racemic)	IC50 [4]: > 98 µM; IC50 [5]: > 98 µM; IC50 [11]: 4.52 µM; logD [12]: 0.55; logD [13]: 1.43; solubility [14]: 960 µg/mL (≈ 3550 µM); solubility [15]: 450 µg/mL (≈ 1660 µM); IC50 [6]: 16.5 µM; IC50 [7]: 0.91 µM; IC50 [8]: 43.5 µM; IC50 [9]: > 98 µM; IC50 [10]: > 250 µM
> 98	2.49	11.3	O=C(O)CS(=O)(=O)CCc1ccc(-c2ccccc2)cc1	–
> 98	0.34	9.99	O=C(O)CC(O)CCc1ccc(-c2ccccc2)cc1 (single isomer, unassigned)	IC50 [4]: > 98 µM; IC50 [5]: > 98 µM; IC50 [6]: 10.5 µM; IC50 [7]: 1.14 µM; IC50 [8]: 36.6 µM; IC50 [9]: > 98 µM; IC50 [10]: > 250 µM
–	0.055	3.76	O=C(O)CC(O)CCc1ccc(-c2ccncc2)cc1 (stereo unspecified)	–
> 98	0.086	2.45	N#Cc1ccc(-c2ccc(CCC(O)CC(=O)O)cc2)cc1 (stereo unspecified)	–
> 98	0.058	1.13	CSc1ccc(-c2ccc(CCC(O)CC(=O)O)cc2)cc1 (stereo unspecified)	–
> 98	–	0.97	CC(=O)c1ccc(-c2ccc(CCC(O)CC(=O)O)cc2)cc1 (stereo unspecified)	–
